# From patent publication US8092800B2 (priority 2005, dated 2012)
# Marks after values point to notes of the source that are not given here. Square brackets hold non-standard residues; d marks the D form. Peptide text beside a SMILES is read from it. * marks the point of attachment. Sta = CC(C)C[C@H](N)[C@@H](O)CC(=O)O; Isovaleryl = CC(C)CC(=O)*
# B1: ADR3-1: MP65 binding dAb, SEQ ID No 5 (antibody, listed as Homo sapiens, V domains shown)
# VH: EVQLLESGGGLVQPGGSLRLSCAASGFTFPDYSMTWVRQAPGKGLEWVSLISNSGKTTMYADSVKGRFTISRDNSKNTLYLQMNSLRAEDTAVYYCAKWVNRILQEFDYWGQGTLVTVSS
# modifications: MP65-binding dAb
# B2: ADR4-13: Sap2 binding dAb, SEQ ID No 25 (protein, listed as Homo sapiens)
# VHH: EVQLLESGGGLVQPGGSLRLSCAASGFSISYKNMAWVRQAPGKGLEWVSAIKAANGSTYYADSVKGRFTISRDNSKNTLYLQMNSLRAEDTAVYYCATGSQKKRTYTFDFWGQGTLVTVSS
# modifications: Sap2-binding dAb
# B3: ADR4-6: Sap2 binding dAb, SEQ ID No 18 (protein, listed as Homo sapiens)
# VHH: EVQLLESGGGLVQPGGSLRLSCAASGFRVSNYDLTWVRQAPGKGLEWVSTISATNGSTYYADSVKGRFTISRDNSKNTLYLQMNSLRAEDTAVYYCAAVTWWLLRHNDNLGFWGQGTLVTVSS
# modifications: Sap2-binding dAb
# Legend:
# C. albicans = assay: Systemic C. albicans infection in Balb/c mice, PEGylated dAbs; type: in vivo, Candida albicans; details: 1 mg/kg at 2 h, 6 h and 24 h post infection
# Protocol: Briefly, mice were chronically infected with C. albicans by injecting 1×10^6 cells per mouse via the lateral tail vein (in 0.2 ml saline). Anti-SAP2 or anti-MP65 dAbs were administered as previously indicated. Survival rates compared with control animals were measured.
# PEGylated versions of both monomer and dimer constructs were assayed for efficacy in controlling a systemic C. albicans infection in Balb/c mice, using a protocol similar to the murine systemic model described above. One mg/kg of PEGylated dAb protein or fluconazole was administered at 2 h, 6 h and 24 h post infection to groups of 8 mice.
# [1] = tested on: Candida albicans strain SA40; details: cited from earlier work
# SAP2 = SAP2 (Candida albicans, UniProt P0DJ06)
# Protocol: This was based on bovine serum albumin degradation by a native, highly purified SAP2 preparation, essentially as described by Ross et al. Briefly, each assay contained 0.6 ml of 1% (w/v) BSA (Sigma Chem. Co., Detroit, Mich.) in 50 mM sodium citrate pH 3.2 and 0.15 enzyme solution (100 μg/ml). After 30 min at 37° C. 0.4 ml 10% (w/v) trichloroacetic acid was added. The tubes were stored in ice for 30 min and then centrifuged (1600×g) for 10 min. The absorbance of supernatant was read at 280 nm. The control was 1% BSA in enzyme-free citrate buffer. One unit of enzyme catalysed a delta OD of 1 per minute.
# Candida albicans = assay: Adherence of Candida to plastic; type: cell-based; details: anti-MP65 dAbs
# Protocol: The fungal cells were grown at 28° C. on YPD agar slants (2.0% wt/vol glucose, 1.0% wt/vol yeast extract, 2.0 wt/vol Bacto peptone, (Difco, Detroit, Mich.). Single suspensions of each organism were prepared by a modification of the procedure of Rotronsen (Rotronsen, D., et al. 1986. Rev Infect Dis.; 8:73-85). Briefly, cells were grown 24 h at 28° C. on a rotating drum in YBD broth pH5.0 (0.2% wt/vol yeast extract, 2.0% wt/vol […] and 2.0% wt/vol dextrose, (Difco, Detroit, Mich.). After harvesting by centrifugation, the C. albicans cells were washed three times in physiological solution (0.85% NaCl). Blastospores were counted with Thoma camera and adjusted to desired concentration (10^8 cells/ml) in Hank's Balanced Salt Solution with calcium and magnesium (Hyclone, Logan, Utah).
# For adherence to the plastic, the fungal cells, grown as above, were washed twice with water and suspended at 1.5×10^3 cells/ml in modified Lee's or M199 liquid media. 1.5×10^3 cells were incubated for 3 hrs at 37° C. in 6-well polystyrene plates (Corning Incorporated, Corning, N.Y.,). After extensive washing, 1 ml of Sabouraud dextrose agar was poured in each well and allowed to solidify. After incubation at 37° C. for 24 hrs, colonies were counted and the results expressed as percentage of the inoculum. […]
# [2] = tested on: Candida albicans strain SA40; assay: Rat vaginal candidiasis model, strain SA40; type: in vivo; details: rats, pre-treated 30 min before intravaginal challenge with SA40
# Protocol: The selected dAbs as described above were assayed for their capacity to accelerate fungus clearance from the rat vaginal cavity challenged by a virulent vaginopathic Candida strain. The controls were the use of an irrelevant dAb, and an anti-enolase antibody as negative ones and the antimycotic fluconazole and pepstatin A (the prototypal Sap inhibitor) as positive ones.
# Chain of SAP2 (P0DJ06 57-398): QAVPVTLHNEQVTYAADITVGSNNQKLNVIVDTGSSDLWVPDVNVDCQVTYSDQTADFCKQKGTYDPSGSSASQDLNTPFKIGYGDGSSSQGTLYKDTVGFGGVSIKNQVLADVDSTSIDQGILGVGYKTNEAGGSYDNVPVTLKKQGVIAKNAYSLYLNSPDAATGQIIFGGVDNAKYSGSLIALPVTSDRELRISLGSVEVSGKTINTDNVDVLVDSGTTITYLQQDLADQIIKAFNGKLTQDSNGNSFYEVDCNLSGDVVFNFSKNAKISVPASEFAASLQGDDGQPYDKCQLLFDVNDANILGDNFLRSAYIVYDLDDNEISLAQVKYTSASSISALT
molecule,measurement,setting,value
"OC(Cn1cncn1)(Cn1cncn1)c1ccc(F)cc1F [Fluconazole, fluconazole]",Mean Survival Time,C. albicans,>30 days
same,Survival,C. albicans,88%
same,susceptibility of strain,[1],fully susceptible
"CC(C)CC(=O)N[C@H](C(=O)N[C@H](C(=O)N[C@@H](CC(C)C)[C@@H](O)CC(=O)N[C@@H](C)C(=O)N[C@@H](CC(C)C)[C@@H](O)CC(=O)O)C(C)C)C(C)C [pepstatin, pepstatin A] (Isovaleryl-VV[Sta]A[Sta]-OH)",ΔOD/ml/min (BSA degradation by SAP),"SAP2; citrate buffer + 1% BSA + SAP, acidic conditions, no-inhibitor control 1.0",0.36 ΔOD/ml/min
same,% Inhibition,"SAP2; inhibition of BSA degradation by SAP2, compared with pepstatin (100*)",100* %
B1,capacity to inhibit adherence to plastic,Candida albicans,capacity to inhibit adherence to plastic
B2,"day of healing/resolution of infection (<1 CFU/μl of vaginal fluid), preventative",[2],21 days
B3,"day of healing/resolution of infection (<1 CFU/μl of vaginal fluid), preventative",[2],21 days
